Source: patent US10738028B2, “Spiro three-membered ring, spiro five-membered ring peptide deformylase inhibitor and use thereof in antibacteria and anti-tumor” (priority 2016, dated 2020)
Values after ≈ are worked out from the molar mass of the structure shown.

Columns and labels:
Type in all cases: cell-based
[1] = test system: methicillin-sensitive Staphylococcus epidermidis (MSSE); experiment: MIC, two-fold agar dilution (CLSI), clinical isolates
Source text: (§1) 1. The invention adopts the two-fold agar dilution method recommended by the operating procedure of antimicrobial susceptibility testing set by American Clinical and Laboratory Standards Institute (CLSI) to determine the Minimum Inhibitory Concentration (MIC) of the test samples against the tested strains.

[2] = test system: Moraxella catarrhalis (BCA); experiment: as above
Source text: as §1

[3] = test system: methicillin-resistant Staphylococcus aureus (MRSA); experiment: as above
Source text: as §1

[4] = test system: methicillin-sensitive Staphylococcus aureus (MSSA); experiment: as above
Source text: as §1

[5] = test system: Enterococcus faecium (EFM); experiment: as above
Source text: as §1

[6] = test system: Streptococcus pneoumoniae (SPN); experiment: as above
Source text: as §1

[7] = test system: Escherichia coli (including ESBLs, non-ESBLs); experiment: as above
Source text: as §1

[8] = test system: methicillin-resistant Staphylococcus epidermidis (MRSE); experiment: as above
Source text: as §1

[9] = test system: Enterococcus faecalis (EFA); experiment: as above
Source text: as §1

[10] = test system: HCT-116 colorectal cancer cell line; experiment: CCK-8 proliferation inhibition; settings: Homo sapiens, HCT-116, 72 h, concentration of 30 μM; 72 hours; CCK-8; read-out: HCT116 inhibition rate/%
Protocol: (1) HCT-116 colorectal cancer cell line, A549 lung cancer cell line, MGC-803 gastric cancer cell line, BEL-7402 liver cancer cell line, Jurkat T cell leukemia cell line, HL60 acute myeloid leukemia cell line, Hela cervical cancer cell line, MCF-7 breast cancer cell line, PC3 prostate cancer cell line and SAOS-2 osteosarcoma cell line were made into single cell suspension, 180 μL of which was inoculated into 96-well culture plate, which was cultured overnight in CO2 incubator (37° C., 5% CO2, 95% air).
(2) Each of the spiro three-membered ring, spiro five membered ring peptide deformylase inhibitors was dissolved in DMSO, and was further formulated into drug solution with required different final concentration using corresponding cell culture medium. The drug solutions were added to the above cells respectively (20 μL/well), with the control group added with 1‰ DMSO, and cultured in a CO2 incubator for 72 hours.
(3) After incubation for 72 hours, the culture solution was decanted, and 100 μL of 1:10 diluted CCK-8 solution was added.
Wherein, in step (1), the concentration of the single cell suspension was 2000 cells/well.
Wherein, in step (2), HCT-116 cells were cultured in McCoy's 5A medium (containing 10% newborn bovine serum, 1% double antibody); A549 and PC3 cells were cultured in F12 medium (containing 10% newborn bovine serum, 1% double antibody); MGC-803, BEL-7402, SAOS-2, Jurkat and HL60 cells were cultured in 1640 medium (containing 10% newborn bovine serum, 1% double antibody); and MCF-7 and Hela cells were cultured in DMEM high glucose medium (containing 10% newborn bovine serum, 1% double antibody).

SMILES: CCCC[C@H](CN(O)C=O)C(=O)N1CC2(CC2)C[C@H]1C(=O)Nc1nncs1 [Example 23, (S)-5-((R)-2-((N-hydroxyformamido)methyl)hexanoyl)-N-(1,3,4-thiadiazol-2-yl)-5-azaspiro[2.4]heptane-6-carboxamide]
- MIC (anti-bacterial activity) ([1]; strain MSSE 15-3): 0.25 µg/mL (≈ 0.632 µM)
- MIC (anti-bacterial activity) ([1]; strain MSSE 15-4): 0.25 µg/mL (≈ 0.632 µM)
- MIC (anti-bacterial activity) ([1]; strain MSSE 15-5): 0.25 µg/mL (≈ 0.632 µM)
- MIC (anti-bacterial activity) ([1]; strain MSSE 15-6): 0.25 µg/mL (≈ 0.632 µM)
- MIC (anti-bacterial activity) ([2]; strain BCA 14-1): 8 µg/mL (≈ 20.2 µM)
- MIC (anti-bacterial activity) ([2]; strain BCA 14-4): 4 µg/mL (≈ 10.1 µM)
- MIC (anti-bacterial activity) ([2]; strain BCA 14-5): 1 µg/mL (≈ 2.53 µM)
- MIC (anti-bacterial activity) ([2]; strain BCA 14-6): 4 µg/mL (≈ 10.1 µM)
- MIC (anti-bacterial activity) ([2]; strain BCA 14-7): 2 µg/mL (≈ 5.06 µM)
- MIC (anti-bacterial activity) ([2]; strain BCA 14-8): 2 µg/mL (≈ 5.06 µM)
- MIC (anti-bacterial activity) ([2]; strain BCA 14-10): 1 µg/mL (≈ 2.53 µM)
- MIC (anti-bacterial activity) ([3]; strain MRSA 15-1): 0.25 µg/mL (≈ 0.632 µM)
- MIC (anti-bacterial activity) ([3]; strain MRSA 15-2): 2 µg/mL (≈ 5.06 µM)
- MIC (anti-bacterial activity) ([3]; strain MRSA 15-3): 0.25 µg/mL (≈ 0.632 µM)
- MIC (anti-bacterial activity) ([3]; strain MRSA 15-4): 2 µg/mL (≈ 5.06 µM)
- MIC (anti-bacterial activity) ([4]; strain MSSA 15-3): 1 µg/mL (≈ 2.53 µM)
- MIC (anti-bacterial activity) ([4]; strain MSSA 15-4): 1 µg/mL (≈ 2.53 µM)
- MIC (anti-bacterial activity) ([4]; strain MSSA 15-5): 0.25 µg/mL (≈ 0.632 µM)
- MIC (anti-bacterial activity) ([4]; strain MSSA 15-6): 0.25 µg/mL (≈ 0.632 µM)
- MIC (anti-bacterial activity) ([5]; strain EFM 15-1): 1 µg/mL (≈ 2.53 µM)
- MIC (anti-bacterial activity) ([5]; strain EFM 15-2): 8 µg/mL (≈ 20.2 µM)
- MIC (anti-bacterial activity) ([5]; strain EFM 15-3): 0.5 µg/mL (≈ 1.26 µM)
- MIC (anti-bacterial activity) ([5]; strain EFM 15-4): 8 µg/mL (≈ 20.2 µM)
- MIC (anti-bacterial activity) ([5]; strain EFM 15-5): 0.5 µg/mL (≈ 1.26 µM)
- MIC (anti-bacterial activity) ([5]; strain EFM 15-6): 8 µg/mL (≈ 20.2 µM)
- MIC (anti-bacterial activity) ([6]; strain SPN 16-2): 15 µg/mL (≈ 37.9 µM)
- MIC (anti-bacterial activity) ([6]; strain SPN 16-4): 1 µg/mL (≈ 2.53 µM)
- MIC (anti-bacterial activity) ([7]; strain ECO+ 15-1): > 32 µg/mL
- MIC (anti-bacterial activity) ([7]; strain ECO+ 15-2): > 32 µg/mL
- MIC (anti-bacterial activity) ([7]; strain ECO+ 15-3): > 32 µg/mL
- MIC (anti-bacterial activity) ([7]; strain ECO+ 15-4): > 32 µg/mL
- MIC (anti-bacterial activity) ([7]; strain ECO− 15-1): > 32 µg/mL
- MIC (anti-bacterial activity) ([7]; strain ECO− 15-2): > 32 µg/mL
- MIC (anti-bacterial activity) ([7]; strain ECO− 15-3): > 32 µg/mL
- MIC (anti-bacterial activity) ([7]; strain ECO− 15-4): > 32 µg/mL
- MIC (anti-bacterial activity) ([8]; strain MRSE 15-1): 0.25 µg/mL (≈ 0.632 µM)
- MIC (anti-bacterial activity) ([8]; strain MRSE 15-2): 0.25 µg/mL (≈ 0.632 µM)
- MIC (anti-bacterial activity) ([8]; strain MRSE 15-3): 0.25 µg/mL (≈ 0.632 µM)
- MIC (anti-bacterial activity) ([8]; strain MRSE 15-7): 1 µg/mL (≈ 2.53 µM)
- MIC (anti-bacterial activity) ([9]; strain EFA 15-1): 32 µg/mL (≈ 80.9 µM)
- MIC (anti-bacterial activity) ([9]; strain EFA 15-2): 32 µg/mL (≈ 80.9 µM)
- MIC (anti-bacterial activity) ([9]; strain EFA 15-3): 1 µg/mL (≈ 2.53 µM)
- MIC (anti-bacterial activity) ([9]; strain EFA 15-4): 32 µg/mL (≈ 80.9 µM)
- MIC (anti-bacterial activity) ([9]; strain EFA 15-5): 32 µg/mL (≈ 80.9 µM)
- MIC (anti-bacterial activity) ([9]; strain EFA 15-6): 32 µg/mL (≈ 80.9 µM)
- MIC (anti-bacterial activity) ([9]; strain EFA 15-9): 32 µg/mL (≈ 80.9 µM)
- inhibition at 30 µM [10]: 7%

SMILES: CCCC[C@H](CN(O)C=O)C(=O)N1CC2(CC2)C[C@H]1c1nc2ccccc2n1CCN(C)C [Example 24]
- MIC (anti-bacterial activity) ([1]; strain MSSE 15-3): 8 µg/mL (≈ 17.6 µM)
- MIC (anti-bacterial activity) ([1]; strain MSSE 15-4): 2 µg/mL (≈ 4.39 µM)
- MIC (anti-bacterial activity) ([1]; strain MSSE 15-5): 2 µg/mL (≈ 4.39 µM)
- MIC (anti-bacterial activity) ([1]; strain MSSE 15-6): 2 µg/mL (≈ 4.39 µM)
- MIC (anti-bacterial activity) ([2]; strain BCA 14-1): 32 µg/mL (≈ 70.2 µM)
- MIC (anti-bacterial activity) ([2]; strain BCA 14-4): 16 µg/mL (≈ 35.1 µM)
- MIC (anti-bacterial activity) ([2]; strain BCA 14-5): 8 µg/mL (≈ 17.6 µM)
- MIC (anti-bacterial activity) ([2]; strain BCA 14-6): 32 µg/mL (≈ 70.2 µM)
- MIC (anti-bacterial activity) ([2]; strain BCA 14-7): 8 µg/mL (≈ 17.6 µM)
- MIC (anti-bacterial activity) ([2]; strain BCA 14-8): 8 µg/mL (≈ 17.6 µM)
- MIC (anti-bacterial activity) ([2]; strain BCA 14-10): 8 µg/mL (≈ 17.6 µM)
- MIC (anti-bacterial activity) ([3]; strain MRSA 15-1): 8 µg/mL (≈ 17.6 µM)
- MIC (anti-bacterial activity) ([3]; strain MRSA 15-2): 32 µg/mL (≈ 70.2 µM)
- MIC (anti-bacterial activity) ([3]; strain MRSA 15-3): 32 µg/mL (≈ 70.2 µM)
- MIC (anti-bacterial activity) ([3]; strain MRSA 15-4): 8 µg/mL (≈ 17.6 µM)
- MIC (anti-bacterial activity) ([4]; strain MSSA 15-3): 8 µg/mL (≈ 17.6 µM)
- MIC (anti-bacterial activity) ([4]; strain MSSA 15-4): 8 µg/mL (≈ 17.6 µM)
- MIC (anti-bacterial activity) ([4]; strain MSSA 15-5): 8 µg/mL (≈ 17.6 µM)
- MIC (anti-bacterial activity) ([4]; strain MSSA 15-6): 8 µg/mL (≈ 17.6 µM)
- MIC (anti-bacterial activity) ([5]; strain EFM 15-1): 4 µg/mL (≈ 8.78 µM)
- MIC (anti-bacterial activity) ([5]; strain EFM 15-2): 8 µg/mL (≈ 17.6 µM)
- MIC (anti-bacterial activity) ([5]; strain EFM 15-3): 2 µg/mL (≈ 4.39 µM)
- MIC (anti-bacterial activity) ([5]; strain EFM 15-4): 8 µg/mL (≈ 17.6 µM)
- MIC (anti-bacterial activity) ([5]; strain EFM 15-5): 4 µg/mL (≈ 8.78 µM)
- MIC (anti-bacterial activity) ([5]; strain EFM 15-6): 8 µg/mL (≈ 17.6 µM)
- MIC (anti-bacterial activity) ([6]; strain SPN 16-2): 4 µg/mL (≈ 8.78 µM)
- MIC (anti-bacterial activity) ([6]; strain SPN 16-4): 1 µg/mL (≈ 2.19 µM)
- MIC (anti-bacterial activity) ([7]; strain ECO+ 15-1): 8 µg/mL (≈ 17.6 µM)
- MIC (anti-bacterial activity) ([7]; strain ECO+ 15-2): 16 µg/mL (≈ 35.1 µM)
- MIC (anti-bacterial activity) ([7]; strain ECO+ 15-3): 16 µg/mL (≈ 35.1 µM)
- MIC (anti-bacterial activity) ([7]; strain ECO+ 15-4): 16 µg/mL (≈ 35.1 µM)
- MIC (anti-bacterial activity) ([7]; strain ECO− 15-1): 8 µg/mL (≈ 17.6 µM)
- MIC (anti-bacterial activity) ([7]; strain ECO− 15-2): 16 µg/mL (≈ 35.1 µM)
- MIC (anti-bacterial activity) ([7]; strain ECO− 15-3): 32 µg/mL (≈ 70.2 µM)
- MIC (anti-bacterial activity) ([7]; strain ECO− 15-4): 16 µg/mL (≈ 35.1 µM)
- MIC (anti-bacterial activity) ([8]; strain MRSE 15-1): 8 µg/mL (≈ 17.6 µM)
- MIC (anti-bacterial activity) ([8]; strain MRSE 15-2): 8 µg/mL (≈ 17.6 µM)
- MIC (anti-bacterial activity) ([8]; strain MRSE 15-3): 8 µg/mL (≈ 17.6 µM)
- MIC (anti-bacterial activity) ([8]; strain MRSE 15-7): 8 µg/mL (≈ 17.6 µM)
- MIC (anti-bacterial activity) ([9]; strain EFA 15-1): 32 µg/mL (≈ 70.2 µM)
- MIC (anti-bacterial activity) ([9]; strain EFA 15-2): 32 µg/mL (≈ 70.2 µM)
- MIC (anti-bacterial activity) ([9]; strain EFA 15-3): 8 µg/mL (≈ 17.6 µM)
- MIC (anti-bacterial activity) ([9]; strain EFA 15-4): 32 µg/mL (≈ 70.2 µM)
- MIC (anti-bacterial activity) ([9]; strain EFA 15-5): 32 µg/mL (≈ 70.2 µM)
- MIC (anti-bacterial activity) ([9]; strain EFA 15-6): 32 µg/mL (≈ 70.2 µM)
- MIC (anti-bacterial activity) ([9]; strain EFA 15-9): 32 µg/mL (≈ 70.2 µM)
- inhibition at 30 µM [10]: 2%
